In PMC5218480 (PLoS ONE, 2017):

Tested on: MV-4-11 cells
Assay: Gene expression microarray analysis (Affymetrix PrimeView) and GSEA
Type: cell-based, human
Parameters: RFU PODN (11730768_x_at) / Fold change /veh PODN (11730768_x_at) / RFU LINC00158 (11744669_a_at) / Fold change /veh LINC00158 (11744669_a_at) / RFU DUSP10 (11751237_a_at) / Fold change /veh DUSP10 (11751237_a_at) / RFU ID3 (11757404_x_at) / Fold change /veh ID3 (11757404_x_at) / RFU PLEKHG5 (11737974_s_at) / Fold change /veh PLEKHG5 (11737974_s_at) / RFU LRRC4B (11730491_at) / Fold change /veh LRRC4B (11730491_at) / RFU GIMAP4 (11747438_a_at) / Fold change /veh GIMAP4 (11747438_a_at) / RFU KRT8 (11758183_x_at) / Fold change /veh KRT8 (11758183_x_at) / RFU CNN1 (11734310_a_at) / Fold change /veh CNN1 (11734310_a_at) / RFU VPS37D (11726825_at) / Fold change /veh VPS37D (11726825_at) / RFU C10orf10 (11716522_x_at) / Fold change /veh C10orf10 (11716522_x_at) / RFU KIR2DL2 /// KIR2DL4 /// KIR2DL5A /// KIR2DL5B /// KIR2DS1 /// KIR2DS2 /// KIR2DS3 /// KIR2DS4 /// KIR3DL3 /// KIR3DL3 /// KIR3DS1 (11738374_at) / Fold change /veh KIR2DL2 /// KIR2DL4 /// KIR2DL5A /// KIR2DL5B /// KIR2DS1 /// KIR2DS2 /// KIR2DS3 /// KIR2DS4 /// KIR3DL3 /// KIR3DL3 /// KIR3DS1 (11738374_at) / RFU C1QL1 (11718748_at) / Fold change /veh C1QL1 (11718748_at) / RFU TMPRSS4 (11747572_a_at) / Fold change /veh TMPRSS4 (11747572_a_at) / RFU HAMP (11756126_x_at) / Fold change /veh HAMP (11756126_x_at) / RFU RNFT2 (11725882_a_at) / Fold change /veh RNFT2 (11725882_a_at) / RFU NR4A2 (11747474_a_at) / Fold change /veh NR4A2 (11747474_a_at) / RFU ABCC12 (11746883_a_at) / Fold change /veh ABCC12 (11746883_a_at) / RFU TMEM136 (11760407_x_at) / Fold change /veh TMEM136 (11760407_x_at) / RFU CLDN22 /// WWC2 (11732394_at) / Fold change /veh CLDN22 /// WWC2 (11732394_at) / RFU HLA-DPB1 (11760878_x_at) / Fold change /veh HLA-DPB1 (11760878_x_at) / RFU SPINT1 (11716480_a_at) / Fold change /veh SPINT1 (11716480_a_at) / RFU GAP43 (11754022_s_at) / Fold change /veh GAP43 (11754022_s_at) / RFU A4GNT (11735810_at) / Fold change /veh A4GNT (11735810_at) / RFU PRB3 (11715151_x_at) / Fold change /veh PRB3 (11715151_x_at) / RFU TUBB4B (11761932_at) / Fold change /veh TUBB4B (11761932_at) / RFU CAPN14 (11732068_a_at) / Fold change /veh CAPN14 (11732068_a_at) / RFU TMCC2 (11721928_a_at) / Fold change /veh TMCC2 (11721928_a_at) / RFU IRGQ (11745062_a_at) / Fold change /veh IRGQ (11745062_a_at) / RFU FAM174B (11720279_a_at) / Fold change /veh FAM174B (11720279_a_at) / RFU TMPRSS4 (11748680_a_at) / Fold change /veh TMPRSS4 (11748680_a_at) / RFU FAM212B (11763350_a_at) / Fold change /veh FAM212B (11763350_a_at) / RFU PLEKHG5 (11743358_a_at) / Fold change /veh PLEKHG5 (11743358_a_at) / RFU ZSCAN30 (11745921_a_at) / Fold change /veh ZSCAN30 (11745921_a_at) / RFU CMKLR1 (11741424_a_at) / Fold change /veh CMKLR1 (11741424_a_at) / RFU LOC101060620 /// MAPK8IP1 (11723275_at) / Fold change /veh LOC101060620 /// MAPK8IP1 (11723275_at) / RFU SPTSSB (11747773_x_at) / Fold change /veh SPTSSB (11747773_x_at) / RFU PRSS12 (11739890_at) / Fold change /veh PRSS12 (11739890_at) / RFU BIN1 (11741810_x_at) / Fold change /veh BIN1 (11741810_x_at) / RFU WNT11 (11732464_a_at) / Fold change /veh WNT11 (11732464_a_at) / RFU C10orf10 (11716521_a_at) / Fold change /veh C10orf10 (11716521_a_at) / RFU C5orf56 (11738089_at) / Fold change /veh C5orf56 (11738089_at) / RFU CYB561 (11721691_x_at) / Fold change /veh CYB561 (11721691_x_at) / RFU ANKRD19P (11752326_a_at) / Fold change /veh ANKRD19P (11752326_a_at) / RFU OR2T12 /// OR2T33 /// OR2T8 (11738714_s_at) / Fold change /veh OR2T12 /// OR2T33 /// OR2T8 (11738714_s_at) / RFU VCAN (11748164_a_at) / Fold change /veh VCAN (11748164_a_at) / RFU JSRP1 (11732532_at) / Fold change /veh JSRP1 (11732532_at) / RFU KRTAP10-11 (11738290_x_at) / Fold change /veh KRTAP10-11 (11738290_x_at) / RFU MYO3A (11730013_a_at) / Fold change /veh MYO3A (11730013_a_at) / RFU EBF3 (11725865_a_at) / Fold change /veh EBF3 (11725865_a_at) / RFU CAMK2N1 (11719241_x_at) / Fold change /veh CAMK2N1 (11719241_x_at) / RFU C5orf56 (11738088_a_at) / Fold change /veh C5orf56 (11738088_a_at) / RFU OLFML3 (11715873_a_at) / Fold change /veh OLFML3 (11715873_a_at) / RFU LOC100653217 /// NTM (11731650_a_at) / Fold change /veh LOC100653217 /// NTM (11731650_a_at) / RFU MAPK11 (11762145_a_at) / Fold change /veh MAPK11 (11762145_a_at) / RFU FIZ1 (11724087_x_at) / Fold change /veh FIZ1 (11724087_x_at) / RFU OASL (11726364_x_at) / Fold change /veh OASL (11726364_x_at) / RFU SOX15 (11748057_x_at) / Fold change /veh SOX15 (11748057_x_at) / RFU CD79A (11719716_a_at) / Fold change /veh CD79A (11719716_a_at) / RFU HIST1H1D (11736915_at) / Fold change /veh HIST1H1D (11736915_at) / RFU CASKIN2 (11723855_a_at) / Fold change /veh CASKIN2 (11723855_a_at) / RFU LOC730098 (11760151_x_at) / Fold change /veh LOC730098 (11760151_x_at) / RFU OR4N2 (11742367_at) / Fold change /veh OR4N2 (11742367_at) / RFU PRRT2 (11749266_a_at) / Fold change /veh PRRT2 (11749266_a_at) / RFU SNX32 (11753110_a_at) / Fold change /veh SNX32 (11753110_a_at) / RFU CDHR5 (11726645_a_at) / Fold change /veh CDHR5 (11726645_a_at) / RFU RCAN1 (11760418_a_at) / Fold change /veh RCAN1 (11760418_a_at) / RFU FAM167A (11723789_a_at) / Fold change /veh FAM167A (11723789_a_at) / RFU FAM26E (11764081_at) / Fold change /veh FAM26E (11764081_at) / RFU ISYNA1 (11749810_s_at) / Fold change /veh ISYNA1 (11749810_s_at) / RFU ACY1 (11761880_at) / Fold change /veh ACY1 (11761880_at) / RFU 11764098_at / Fold change /veh 11764098_at / RFU SAMD14 (11745864_x_at) / Fold change /veh SAMD14 (11745864_x_at) / RFU NPB (11741838_a_at) / Fold change /veh NPB (11741838_a_at) / RFU TMPRSS6 (11731388_a_at) / Fold change /veh TMPRSS6 (11731388_a_at) / RFU KRTAP10-2 (11738614_at) / Fold change /veh KRTAP10-2 (11738614_at) / RFU ARHGAP8 /// PRR5-ARHGAP8 (11727945_x_at) / Fold change /veh ARHGAP8 /// PRR5-ARHGAP8 (11727945_x_at) / RFU KRTAP5-7 /// NADSYN1 (11734609_at) / Fold change /veh KRTAP5-7 /// NADSYN1 (11734609_at) / RFU RASL12 (11751679_a_at) / Fold change /veh RASL12 (11751679_a_at) / RFU CDKN2B (11736163_a_at) / Fold change /veh CDKN2B (11736163_a_at) / RFU PRF1 (11729649_at) / Fold change /veh PRF1 (11729649_at) / RFU, ZNF638 /// ZNF638-IT1 / Fold change vs veh, ZNF638 /// ZNF638-IT1 / RFU, PANK3 / Fold change vs veh, PANK3 / RFU, SH3YL1 / Fold change vs veh, SH3YL1 / RFU, ZEB2 / Fold change vs veh, ZEB2 / RFU, NRIP1 / Fold change vs veh, NRIP1 / RFU, PTTG1IP / Fold change vs veh, PTTG1IP / RFU, CAPN2 / Fold change vs veh, CAPN2 / RFU, MED14 / Fold change vs veh, MED14 / RFU, SNORA58 / Fold change vs veh, SNORA58 / RFU, C1orf63 / Fold change vs veh, C1orf63 / RFU, LRRFIP1 / Fold change vs veh, LRRFIP1 / RFU, NDUFAF7 / Fold change vs veh, NDUFAF7 / RFU, SLC12A2 / Fold change vs veh, SLC12A2 / RFU, IBTK / Fold change vs veh, IBTK / RFU, ESF1 / Fold change vs veh, ESF1 / Fold change vs veh, TMEM50B / RFU, TAOK1 / Fold change vs veh, TAOK1 / RFU, ACBD3 / Fold change vs veh, ACBD3 / RFU, TMA16 / Fold change vs veh, TMA16 / RFU, RWDD3 / Fold change vs veh, RWDD3 / RFU, BCAT1 / Fold change vs veh, BCAT1 / RFU, EDEM3 / Fold change vs veh, EDEM3 / RFU, TMEM33 / Fold change vs veh, TMEM33 / RFU, WDR75 / Fold change vs veh, WDR75 / RFU, AHCTF1 / Fold change vs veh, AHCTF1 / RFU, TFRC / Fold change vs veh, TFRC / RFU, ZDHHC17 / Fold change vs veh, ZDHHC17 / RFU, NOM1 / Fold change vs veh, NOM1 / RFU, ARL8B / Fold change vs veh, ARL8B / RFU, ZBTB11 / Fold change vs veh, ZBTB11 / RFU, TAMM41 / Fold change vs veh, TAMM41 / RFU, KIAA1704 /// LOC100996395 / Fold change vs veh, KIAA1704 /// LOC100996395 / RFU, ING1 / Fold change vs veh, ING1 / RFU, TRMT61B / Fold change vs veh, TRMT61B / RFU, FUBP3 / Fold change vs veh, FUBP3 / RFU, TP53 / Fold change vs veh, TP53 / RFU, TNKS2 / Fold change vs veh, TNKS2 / RFU, ZFP14 / Fold change vs veh, ZFP14 / RFU, ACTR2 / Fold change vs veh, ACTR2 / RFU, PPP3R1 / Fold change vs veh, PPP3R1 / RFU, PIK3R1 / Fold change vs veh, PIK3R1 / RFU, HNRNPA1 / Fold change vs veh, HNRNPA1 / RFU, RNF170 / Fold change vs veh, RNF170 / RFU, ZNF28 / Fold change vs veh, ZNF28 / RFU, RNGTT / Fold change vs veh, RNGTT / RFU, OGT / Fold change vs veh, OGT / RFU, BRD1 / Fold change vs veh, BRD1 / RFU, MARS / Fold change vs veh, MARS / RFU, ZNF655 / Fold change vs veh, ZNF655 / RFU, FAHD1 / Fold change vs veh, FAHD1 / RFU, BDP1 / Fold change vs veh, BDP1 / RFU, LRRCC1 / Fold change vs veh, LRRCC1 / RFU, ARID1A / Fold change vs veh, ARID1A / RFU, ZNF146 / Fold change vs veh, ZNF146 / RFU, ZNF330 / Fold change vs veh, ZNF330 / RFU, GPN3 / Fold change vs veh, GPN3 / RFU, C9orf123 / Fold change vs veh, C9orf123 / RFU, N4BP2L2 / Fold change vs veh, N4BP2L2 / RFU, ARFIP1 / Fold change vs veh, ARFIP1 / RFU, FAM179B / Fold change vs veh, FAM179B / RFU, BCL10 / Fold change vs veh, BCL10 / RFU, UHRF1BP1L / Fold change vs veh, UHRF1BP1L / RFU, BET1 / Fold change vs veh, BET1 / RFU, CNOT2 / Fold change vs veh, CNOT2 / RFU, ZNF268 / Fold change vs veh, ZNF268 / Fold change vs veh, ZNF507 / RFU, DGCR2 / Fold change vs veh, DGCR2 / RFU, WDSUB1 / Fold change vs veh, WDSUB1 / Fold change vs veh, HSP90B1 /// MIR3652 / RFU, ADSS / Fold change vs veh, ADSS / RFU, GK / Fold change vs veh, GK / RFU, ZNF148 / Fold change vs veh, ZNF148 / RFU, TAF9 / Fold change vs veh, TAF9 / RFU, SLC1A5 / Fold change vs veh, SLC1A5 / RFU, SLMO2 / Fold change vs veh, SLMO2 / RFU, ABCC4 / Fold change vs veh, ABCC4 / RFU, LOC101060439 /// RAP1B / Fold change vs veh, LOC101060439 /// RAP1B / RFU, RFX7 / Fold change vs veh, RFX7 / RFU, GTPBP10 / Fold change vs veh, GTPBP10 / RFU, CNEP1R1 / Fold change vs veh, CNEP1R1 / RFU, BIVM-ERCC5 /// ERCC5 / Fold change vs veh, BIVM-ERCC5 /// ERCC5 / RFU, ILF3 / Fold change vs veh, ILF3 / RFU 11762660_at / Fold change /veh 11762660_at / RFU VCAN (11757783_s_at) / Fold change /veh VCAN (11757783_s_at) / RFU DDX43 (11728927_at) / Fold change /veh DDX43 (11728927_at) / RFU KRT8 (11758188_x_at) / Fold change /veh KRT8 (11758188_x_at) / RFU NKD1 (11759106_at) / Fold change /veh NKD1 (11759106_at) / RFU SRD5A1 (11742802_a_at) / Fold change /veh SRD5A1 (11742802_a_at) / RFU TPSAB1 /// TPSB2 (11721975_s_at) / Fold change /veh TPSAB1 /// TPSB2 (11721975_s_at) / RFU GSTM3 (11746129_a_at) / Fold change /veh GSTM3 (11746129_a_at) / RFU IL23R (11737362_x_at) / Fold change /veh IL23R (11737362_x_at) / RFU TMEM51 (11727254_a_at) / Fold change /veh TMEM51 (11727254_a_at) / RFU PIWIL2 (11732686_x_at) / Fold change /veh PIWIL2 (11732686_x_at) / RFU ORM1 (11744905_x_at) / Fold change /veh ORM1 (11744905_x_at) / RFU CCDC152 (11743942_at) / Fold change /veh CCDC152 (11743942_at) / RFU ECM1 (11717891_a_at) / Fold change /veh ECM1 (11717891_a_at) / RFU IL23R (11748794_a_at) / Fold change /veh IL23R (11748794_a_at) / RFU TNFAIP8L3 (11732012_x_at) / Fold change /veh TNFAIP8L3 (11732012_x_at) / RFU MBOAT4 (11741988_at) / Fold change /veh MBOAT4 (11741988_at) / RFU 11764193_at / Fold change /veh 11764193_at / RFU TMEM53 (11763286_at) / Fold change /veh TMEM53 (11763286_at) / RFU MAGEB2 (11727129_at) / Fold change /veh MAGEB2 (11727129_at) / RFU TMEM200A (11744735_a_at) / Fold change /veh TMEM200A (11744735_a_at) / RFU CCDC152 (11751479_a_at) / Fold change /veh CCDC152 (11751479_a_at) / RFU FAM211A (11726209_a_at) / Fold change /veh FAM211A (11726209_a_at) / RFU RGS16 (11746705_a_at) / Fold change /veh RGS16 (11746705_a_at) / RFU VCAN (11755009_s_at) / Fold change /veh VCAN (11755009_s_at) / RFU RHOB (11743442_s_at) / Fold change /veh RHOB (11743442_s_at) / RFU RGS16 (11720943_a_at) / Fold change /veh RGS16 (11720943_a_at) / RFU RGS16 (11720944_at) / Fold change /veh RGS16 (11720944_at) / RFU, VPS4B / Fold change vs veh, VPS4B / RFU, CREB1 / Fold change vs veh, CREB1 / RFU, DNAJC13 / Fold change vs veh, DNAJC13 / RFU, GNAQ / Fold change vs veh, GNAQ / RFU, CDK5R1 / Fold change vs veh, CDK5R1 / RFU, ZRANB3 / Fold change vs veh, ZRANB3 / RFU, CUL4A / Fold change vs veh, CUL4A / RFU, CCNY / Fold change vs veh, CCNY / RFU, UFL1 / Fold change vs veh, UFL1 / RFU, COG3 / Fold change vs veh, COG3 / RFU, DIAPH2 / Fold change vs veh, DIAPH2 / RFU, SKA2 / Fold change vs veh, SKA2 / RFU, AFF3 / Fold change vs veh, AFF3 / RFU, LMF1 / Fold change vs veh, LMF1 / RFU, IPO11 / Fold change vs veh, IPO11 / RFU, DFFB / Fold change vs veh, DFFB / RFU, FOXP1 / Fold change vs veh, FOXP1 / RFU, CARD8 / Fold change vs veh, CARD8 / RFU, STRN3 / Fold change vs veh, STRN3 / RFU, ADK / Fold change vs veh, ADK / RFU, RASSF2 / Fold change vs veh, RASSF2 / RFU, WIPF1 / Fold change vs veh, WIPF1 / RFU, LARP1B / Fold change vs veh, LARP1B / RFU, RASA1 / Fold change vs veh, RASA1 / RFU, RB1 / Fold change vs veh, RB1 / RFU, PPFIA1 / Fold change vs veh, PPFIA1 / RFU, MAT2A / Fold change vs veh, MAT2A / RFU, CCT5 / Fold change vs veh, CCT5 / RFU, WDR92 / Fold change vs veh, WDR92 / RFU, CUX1 / Fold change vs veh, CUX1 / RFU, TTC7A / Fold change vs veh, TTC7A / RFU, TMEM135 / Fold change vs veh, TMEM135 / RFU, DEPTOR / Fold change vs veh, DEPTOR / RFU, CPM / Fold change vs veh, CPM / RFU, DNAJB6 / Fold change vs veh, DNAJB6 / RFU, CACNA2D3 / Fold change vs veh, CACNA2D3 / RFU, DTX4 / Fold change vs veh, DTX4 / RFU, TFCP2 / Fold change vs veh, TFCP2 / RFU, GMCL1 /// GMCL1P1 / Fold change vs veh, GMCL1 /// GMCL1P1 / RFU, AEBP2 / Fold change vs veh, AEBP2 / RFU, SNHG1 /// SNORD22 /// SNORD25 /// SNORD26 /// SNORD27 /// SNORD28 /// SNORD29 /// SNORD31 / Fold change vs veh, SNHG1 /// SNORD22 /// SNORD25 /// SNORD26 /// SNORD27 /// SNORD28 /// SNORD29 /// SNORD31 / Fold change (Aza/veh), C12orf56 (ProbeSet 11735607_a_at) / Fold change (ACY-1035/veh), C12orf56 (ProbeSet 11735607_a_at) / Fold change (Aza/veh), FGFR1OP (ProbeSet 11751329_s_at) / Fold change (ACY-1035/veh), FGFR1OP (ProbeSet 11751329_s_at) / Fold change (Aza/veh), VPS36 (ProbeSet 11739960_a_at) / Fold change (ACY-1035/veh), VPS36 (ProbeSet 11739960_a_at) / RFU SYPL1 (11715823_x_at) / Fold change /veh SYPL1 (11715823_x_at) / RFU IGFBP7 (11715501_s_at) / Fold change /veh IGFBP7 (11715501_s_at) / RFU REEP3 (11722064_at) / Fold change /veh REEP3 (11722064_at) / RFU IGLL1 (11728026_x_at) / Fold change /veh IGLL1 (11728026_x_at): dose or concentration left out as unconfirmed
Conditions: MV-4-11 cells, 48 hours

## Nc1ncn([C@@H]2O[C@H](CO)[C@@H](O)[C@H]2O)c(=O)n1 [azacitidine]
  RFU KRTAP10-11 (11738290_x_at): 43.89 RFU
